Assay results reported in JP2017105729A, “ミトコンドリア病の治療剤” (Tohoku University NUC, priority 2015, dated 2017).

How the values were obtained:
[1] = system: mitochondrial disease [ミトコンドリア病]; conditions: reported in Patent Literature 2; cited from earlier work
[2] = system: erythropoietin [エリスロポエチン]; conditions: reported in Patent Literature 2; cited from earlier work
[3] = system: Leber disease patient-derived fibroblasts [Leber病患者由来線維芽細胞]; test: Suppression of oxidative-stress (BSO) induced cell death of Leber disease patient fibroblasts: cell viability (MTT assay, Cell Counting Kit-8); type: cell-based; conditions: for minimal effective concentration: Fibroblast, BSO 100 μM 24 h, then compound (0.1, 0.3, 1, 3, 10 μM) 48 h, n=4, Fig. 1B, read-out: concentration at which the decrease in cell viability is suppressed
[4] = system: mitochondrial encephalomyopathy patients [ミトコンドリア脳筋症患者]; conditions: cited from earlier work
[5] = system: erythropoietin, human liver cancer cell line Hep3B [エリスロポエチン産生ヒト肝臓癌細胞株Hep3B]; test: Erythropoietin production in Hep3B cells in the presence of TNFα (ELISA); type: cell-based; conditions: compound 3 μM with TNFα 220 μg/mL, 24 h, 20% O2; relative to DMSO; Fig. 2
[6] = system: Leber disease patient-derived fibroblasts [Leber病患者由来線維芽細胞]; test: Suppression of cytotoxicity in BSO-treated Leber disease patient fibroblasts: released LDH activity (Cytotoxicity LDH Assay Kit-WST); type: cell-based; conditions: BSO 100 μM 24 h, then compound (0.1, 0.3, 1, 3, 10 μM) 48 h, n=4; LDH release; Fig. 1C

## O=C(CC(C(=O)O)c1c[nH]c2ccccc12)c1ccc(F)cc1F (centres unmarked) [4−(2,4−ジフルオロフェニル)−2−(1H−インドール−3−イル)−4−オキソ−ブタン酸]
[1]
  therapeutic effect on mitochondrial disease: ミトコンドリア病の治療効果
[2]
  effect of enhancing erythropoietin expression / promoting erythropoietin production: エリスロポエチン発現増強効果

## CCCCS(=N)(=O)CC[C@H](N)C(=O)O (stereo partly drawn) [BSO, L-Buthionine sulphoximine]
[3]; BSO 100 μM (glutathione synthesis inhibitor) alone, Fig. 1A
  cell viability: 細胞生存率が低下する

## CC1=NN(c2ccccc2)C(=O)C1 [エダラボン, 3−メチル−1−フェニル−2−ピラゾリン−5−オン]
[4]
  effect of stopping enlargement of infarct: 梗塞の拡大を停止する効果
  effect of suppressing edema: 浮腫を抑制する効果

## O=C(CC(C(=O)O)c1c[nH]c2cc(F)ccc12)c1ccc(F)cc1F (centres unmarked) [本件化合物#1, 4−(2,4−ジフルオロフェニル)−2−(6−フルオロ−1H−インドール−3−イル)−4−オキソブタン酸]
[5]
  erythropoietin expression level: 増加する

## O=C(CC(C(=O)O)c1c[nH]c2cccc(Cl)c12)c1ccc(F)cc1F (centres unmarked) [本件化合物#5, 2−(4−クロロ−1H−インドール−3−イル)−4−(2,4−ジフルオロフェニル)−4−オキソブタン酸]
[5]
  erythropoietin expression level: 増加する

## Cc1ccc2[nH]cc(C(CC(=O)c3ccc(F)cc3F)C(=O)O)c2c1 (centres unmarked) [本件化合物#6, 4−(2,4−ジフルオロフェニル)−2−(5−メチル−1H−インドール−3−イル)−4−オキソブタン酸]
[3]
  minimal effective concentration: ≥ 1 µM
[6]
  concentration at which the cytotoxicity level is lowered: ≥ 1 µM
[5]
  erythropoietin expression level: 増加する

## O=C(CC(C(=O)O)c1c[nH]c2ccccc12)c1ccc(F)cc1 (centres unmarked) [比較例化合物#4, 4−(4−フルオロフェニル)−2−(1H−インドール−3−イル)−4−オキソ−ブタン酸]
[3]
  minimal effective concentration: ≥ 10 µM
[6]
  concentration at which the cytotoxicity level is lowered: ≥ 10 µM
[1]
  therapeutic effect on mitochondrial disease: ミトコンドリア病の治療効果
[2]
  effect of enhancing erythropoietin expression / promoting erythropoietin production: エリスロポエチン産生の促進効果
